The source made the active and inactive calls. The calls are words filed in the database; no cut-off is given here.

The first assay is filed under the species Homo sapiens. Kind of assay: Antiproliferative activity against log phase culture of human fibroblasts assessed as growth inhibition after 4 days. Conditions: Fibroblast. Type of assay: functional.
With `CNCC(CS)CNC`, the “growth inhibition (GI)” value is “Active”.
Consider `CCNCCCCNCCCCNCCCCNCCCCNC/C=C(/CS)CNCCCCNCCCCNCCCCNCCCCNCC`, for which the “growth inhibition (GI)” value was “Active”.
Still for that read-out and setting: the entry for `CCNCCCCNCCCCNC/C=C(/CS)CNCCCCNCCCCNCC` is “Active”.
Same read-out and setting: with `CCNCCCCNCCCCNCCCCNC/C=C(/CS)CNCCCCNCCCCNCCCCNCC` the entry was “Active”; with `CCNCCCCNC/C=C(/CS)CNCCCCNCC`, “Active”.

A further assay has as its system Rattus norvegicus. Kind of assay: Protection against 17.33 Gy radiation induced-dermatitis in rat compound administered topically 4 times in 2 hrs prior irradiation measured after 13 days. Type of assay: functional, organism-based.
Conditions: not given
For the compound `CNCC(CS)CNC`, the result was Active.

Source of the values: ChEMBL document CHEMBL1921691, “Synthesis and growth regulatory activity of a prototype member of a new family of aminothiol radioprotectors” (Bioorg Med Chem Lett, 2011).
